Test results: patent publication US8614327B2 (Vertex Pharmaceuticals Incorporated, priority 2004, dated 2013)
One block for each compound: values may come before it.

Biological target: T1, ΔF508-CFTR (Homo sapiens, UniProt P13569, DEL508-508)
T1 construct: expressed in transfected cells
Assay: Membrane potential optical (FRET/VIPR) assay, identification of potentiator compounds
Type: cell-based
Settings: Table 3, assay not given; for % Activity: relative efficacy
Outline: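 Double-addition potentiator screen: compound delivered in gluconate-substituted Cl^--free medium, membrane potential followed via CC2-DMPE/DiSBAC2(3) FRET on VIPR. Cells were ΔF508-CFTR-expressing NIH3T3 mouse fibroblasts, held 2 h at 37° C. then 24 h at 27° C. before assay.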

T1 sequence (P13569 with tags, fused parts or gaps DEL508-508): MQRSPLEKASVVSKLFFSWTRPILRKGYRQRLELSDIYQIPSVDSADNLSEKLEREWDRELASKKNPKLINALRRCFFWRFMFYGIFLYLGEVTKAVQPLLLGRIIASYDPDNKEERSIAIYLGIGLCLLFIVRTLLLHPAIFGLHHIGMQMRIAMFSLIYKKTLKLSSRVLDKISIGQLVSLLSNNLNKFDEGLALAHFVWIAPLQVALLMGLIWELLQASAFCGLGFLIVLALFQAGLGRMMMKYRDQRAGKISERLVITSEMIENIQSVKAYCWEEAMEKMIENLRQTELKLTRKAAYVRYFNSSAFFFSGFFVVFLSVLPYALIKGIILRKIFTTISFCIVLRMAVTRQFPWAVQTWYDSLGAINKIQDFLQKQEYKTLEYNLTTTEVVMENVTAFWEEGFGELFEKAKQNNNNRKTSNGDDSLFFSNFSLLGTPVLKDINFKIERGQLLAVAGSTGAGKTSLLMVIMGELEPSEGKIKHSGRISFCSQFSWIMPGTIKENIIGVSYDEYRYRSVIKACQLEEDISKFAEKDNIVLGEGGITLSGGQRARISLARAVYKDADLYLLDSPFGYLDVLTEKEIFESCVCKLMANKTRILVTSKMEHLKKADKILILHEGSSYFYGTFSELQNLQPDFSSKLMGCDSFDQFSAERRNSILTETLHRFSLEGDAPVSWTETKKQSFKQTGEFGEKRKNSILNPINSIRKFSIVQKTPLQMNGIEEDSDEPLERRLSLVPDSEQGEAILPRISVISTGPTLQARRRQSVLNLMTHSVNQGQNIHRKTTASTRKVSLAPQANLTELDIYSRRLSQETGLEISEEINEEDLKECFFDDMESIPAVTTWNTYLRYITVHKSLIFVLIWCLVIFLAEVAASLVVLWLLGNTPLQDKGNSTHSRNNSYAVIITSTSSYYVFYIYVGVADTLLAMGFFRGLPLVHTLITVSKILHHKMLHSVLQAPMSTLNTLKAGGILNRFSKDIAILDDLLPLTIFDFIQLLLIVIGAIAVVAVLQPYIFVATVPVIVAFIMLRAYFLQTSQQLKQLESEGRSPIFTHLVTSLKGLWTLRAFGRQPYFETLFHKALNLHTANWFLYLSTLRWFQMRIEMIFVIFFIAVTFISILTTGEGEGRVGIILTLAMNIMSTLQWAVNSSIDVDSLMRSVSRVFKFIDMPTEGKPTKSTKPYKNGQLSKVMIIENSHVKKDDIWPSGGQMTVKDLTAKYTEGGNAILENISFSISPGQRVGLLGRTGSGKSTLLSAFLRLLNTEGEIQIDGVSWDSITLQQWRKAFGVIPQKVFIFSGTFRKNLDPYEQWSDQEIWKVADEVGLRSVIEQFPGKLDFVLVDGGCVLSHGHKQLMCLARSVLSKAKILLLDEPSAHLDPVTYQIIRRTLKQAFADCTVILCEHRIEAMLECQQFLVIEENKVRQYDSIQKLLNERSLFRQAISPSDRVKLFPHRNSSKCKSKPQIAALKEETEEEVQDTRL

SMILES: CCOc1cccc2c(=O)c(C(=O)Nc3cc(O)c(C(C)(C)C)cc3F)c[nH]c12 [Compound 526, 8-ethoxy-N-(2-fluoro-5-hydroxy-4-tert-butyl-phenyl)-4-oxo-1H-quinoline-3-carboxamide]
EC50: 10 to 25 µM
% Activity: + (<25%)

SMILES: O=C(Nc1ccc2cc(C(F)(F)F)[nH]c2c1)c1c[nH]c2ccccc2c1=O [Compound 537, 4-oxo-N-[2-(trifluoromethyl)-1H-indol-6-yl]-1H-quinoline-3-carboxamide]
EC50: < 10 µM
% Activity: ++ (between 25% to 100%)

SMILES: Cc1cc(OC(F)(F)F)ccc1NC(=O)c1c[nH]c2ccccc2c1=O [Compound 538, N-[2-methyl-4-(trifluoromethoxy)phenyl]-4-oxo-1H-quinoline-3-carboxamide]
EC50: < 10 µM
% Activity: ++ (between 25% to 100%)

SMILES: Cc1cccc2[nH]cc(C(=O)Nc3ccc(N4[C@H](C)CC[C@H]4C)cc3C(F)(F)F)c(=O)c12 [Compound 539, N-(4-((2R,5R)-2,5-dimethylpyrrolidin-1-yl)-2-(trifluoromethyl)phenyl)-5-methyl-4-oxo-1,4-dihydroquinoline-3-carboxamide]
EC50: < 10 µM
% Activity: ++ (between 25% to 100%)

SMILES: CC(C)(C)OC(=O)[C@H]1CCCN1c1ccc(NC(=O)c2c[nH]c3ccccc3c2=O)c(C(F)(F)F)c1 [Compound 540, (R)-tert-butyl 1-(4-(4-oxo-1,4-dihydroquinoline-3-carboxamido)-3-(trifluoromethyl)phenyl)pyrrolidine-2-carboxylate]
EC50: < 10 µM
% Activity: +++ (>100%)

SMILES: Cc1cccc2[nH]cc(C(=O)Nc3ccc(N4CC[C@@H](F)C4)cc3C(F)(F)F)c(=O)c12 [Compound 541, (R)-N-(4-(3-fluoropyrrolidin-1-yl)-2-(trifluoromethyl)phenyl)-5-methyl-4-oxo-1,4-dihydroquinoline-3-carboxamide]
EC50: < 10 µM
% Activity: ++ (between 25% to 100%)

SMILES: CNc1cccc2[nH]cc(C(=O)Nc3cc(O)c(C(C)(C)C)cc3C(C)(C)C)c(=O)c12 [Compound 542, N-(5-hydroxy-2,4-ditert-butyl-phenyl)-5-methylamino-4-oxo-1H-quinoline-3-carboxamide]
EC50: < 10 µM
% Activity: +++ (>100%)

SMILES: CN(C)c1ccc2[nH]cc(C(=O)Nc3cc(O)c(C(C)(C)C)cc3C(C)(C)C)c(=O)c2c1 [Compound 544, 6-dimethylamino-N-(5-hydroxy-2,4-ditert-butyl-phenyl)-4-oxo-1H-quinoline-3-carboxamide]
EC50: < 10 µM
% Activity: ++ (between 25% to 100%)

SMILES: O=C(Nc1ccc2c(C(F)(F)F)c[nH]c2c1)c1c[nH]c2ccccc2c1=O [Compound 545, 4-oxo-N-[3-(trifluoromethyl)-1H-indol-6-yl]-1H-quinoline-3-carboxamide]
EC50: < 10 µM
% Activity: +++ (>100%)

SMILES: Cc1cccc2[nH]cc(C(=O)Nc3ccc(N4CCC(C)C4)cc3C(F)(F)F)c(=O)c12 (stereo not drawn) [Compound 546, 5-methyl-N-[4-(3-methylpyrrolidin-1-yl)-2-(trifluoromethyl)phenyl]-4-oxo-1H-quinoline-3-carboxamide]
EC50: < 10 µM
% Activity: ++ (between 25% to 100%)

SMILES: Cc1cccc2[nH]cc(C(=O)Nc3ccc(OC(C)C)cc3C(F)(F)F)c(=O)c12 [Compound 547, N-[4-isopropoxy-2-(trifluoromethyl)phenyl]-5-methyl-4-oxo-1H-quinoline-3-carboxamide]
EC50: < 10 µM
% Activity: +++ (>100%)

SMILES: CC(C)(C)c1cc(C(C)(C)C)c(NC(=O)c2c[nH]c3cc(C#N)ccc3c2=O)cc1O [Compound 548, 7-cyano-N-(5-hydroxy-2,4-ditert-butyl-phenyl)-4-oxo-1H-quinoline-3-carboxamide]
EC50: < 10 µM
% Activity: ++ (between 25% to 100%)

SMILES: O=C(Nc1cccc(-c2cccs2)c1)c1c[nH]c2ccccc2c1=O [Compound 549, 4-oxo-N-[3-(2-thienyl)phenyl]-1H-quinoline-3-carboxamide]
EC50: < 10 µM
% Activity: ++ (between 25% to 100%)

SMILES: COC(=O)[C@@H]1C[C@@H](OC(C)(C)C)CN1c1ccc(NC(=O)c2c[nH]c3ccccc3c2=O)c(C(F)(F)F)c1 [Compound 550, (2S,4R)-methyl 4-tert-butoxy-1-(4-(4-oxo-1,4-dihydroquinoline-3-carboxamido)-3-(trifluoromethyl)phenyl)pyrrolidine-2-carboxylate]
EC50: < 10 µM
% Activity: ++ (between 25% to 100%)

SMILES: O=C(Nc1cc(O)c2ccccc2c1)c1c[nH]c2ccccc2c1=O [Compound 551, N-(4-hydroxy-2-naphthyl)-4-oxo-1H-quinoline-3-carboxamide]
% Activity: ++ (between 25% to 100%)

SMILES: CC(C)(C)c1cc(C(C)(C)C)c(NC(=O)c2c[nH]c3ccc(Br)cc3c2=O)cc1O [Compound 553, 6-bromo-N-(5-hydroxy-2,4-ditert-butyl-phenyl)-4-oxo-1H-quinoline-3-carboxamide]
EC50: < 10 µM
% Activity: ++ (between 25% to 100%)

Results, then the compound that gave them:

EC50: < 10 µM
% Activity: ++ (between 25% to 100%)
SMILES: CC(C)(C)c1cc(C(C)(C)C)c(NC(=O)c2c[nH]c3cccc(C(F)(F)F)c3c2=O)cc1O [Compound 520, N-(5-hydroxy-2,4-ditert-butyl-phenyl)-4-oxo-5-(trifluoromethyl)-1H-quinoline-3-carboxamide]

EC50: < 10 µM
% Activity: ++ (between 25% to 100%)
SMILES: CC1(c2ccc(NC(=O)c3c[nH]c4ccc(F)cc4c3=O)cc2)COC1 [Compound 521, 6-fluoro-N-[4-(3-methyloxetan-3-yl)phenyl]-4-oxo-1H-quinoline-3-carboxamide]

EC50: < 10 µM
% Activity: ++ (between 25% to 100%)
SMILES: O=C(Nc1ccc(C2CCCCC2)c(O)c1)c1c[nH]c2cccc(O)c2c1=O [Compound 522, N-(4-cyclohexyl-3-hydroxy-phenyl)-5-hydroxy-4-oxo-1H-quinoline-3-carboxamide]

EC50: < 10 µM
% Activity: ++ (between 25% to 100%)
SMILES: CC1(c2ccc(NC(=O)c3c[nH]c4ccccc4c3=O)cc2)COC1 [Compound 523, N-[4-(3-methyloxetan-3-yl)phenyl]-4-oxo-1H-quinoline-3-carboxamide]

EC50: < 10 µM
% Activity: ++ (between 25% to 100%)
SMILES: CCOc1ccc2[nH]cc(C(=O)Nc3cc(O)c(C(C)(C)C)cc3C(C)(C)C)c(=O)c2c1 [Compound 524, 6-ethoxy-N-(5-hydroxy-2,4-ditert-butyl-phenyl)-4-oxo-1H-quinoline-3-carboxamide]

EC50: < 10 µM
% Activity: + (<25%)
SMILES: CC(C)(C)c1cc(C(C)(C)C)c(NC(=O)c2c[nH]c3ccc(C#N)cc3c2=O)cc1O [Compound 525, 6-cyano-N-(5-hydroxy-2,4-ditert-butyl-phenyl)-4-oxo-1H-quinoline-3-carboxamide]

EC50: < 10 µM
% Activity: ++ (between 25% to 100%)
SMILES: CC(C)(C)c1ccc(NC(=O)c2c[nH]c3ccc(F)cc3c2=O)cc1F [Compound 527, 6-fluoro-N-(3-fluoro-4-tert-butyl-phenyl)-4-oxo-1H-quinoline-3-carboxamide]

EC50: < 10 µM
% Activity: ++ (between 25% to 100%)
SMILES: Cc1cccc2[nH]cc(C(=O)Nc3ccc(N4CCC(F)(F)C4)cc3C(F)(F)F)c(=O)c12 [Compound 528, N-[4-(3,3-difluoropyrrolidin-1-yl)-2-(trifluoromethyl)phenyl]-5-methyl-4-oxo-1H-quinoline-3-carboxamide]

EC50: < 10 µM
% Activity: ++ (between 25% to 100%)
SMILES: CC1(c2ccc(NC(=O)c3c[nH]c4cccc(O)c4c3=O)cc2)COC1 [Compound 529, 5-hydroxy-N-[4-(3-methyloxetan-3-yl)phenyl]-4-oxo-1H-quinoline-3-carboxamide]

EC50: < 10 µM
% Activity: ++ (between 25% to 100%)
SMILES: COC(=O)[C@@H]1[C@@H](C)CCN1c1ccc(NC(=O)c2c[nH]c3ccccc3c2=O)c(C(F)(F)F)c1 [Compound 530, (2S,3S)-methyl 3-methyl-1-(4-(4-oxo-1,4-dihydroquinoline-3-carboxamido)-3-(trifluoromethyl)phenyl)pyrrolidine-2-carboxylate]

EC50: < 10 µM
% Activity: ++ (between 25% to 100%)
SMILES: COC(=O)[C@@H]1[C@H]2C[C@H]2CN1c1ccc(NC(=O)c2c[nH]c3ccccc3c2=O)c(C(F)(F)F)c1 [Compound 531, (1S,2S,5R)-methyl 3-(4-(4-oxo-1,4-dihydroquinoline-3-carboxamido)-3-(trifluoromethyl)phenyl)-3-azabicyclo[3.1.0]hexane-2-carboxylate]

EC50: < 10 µM
% Activity: ++ (between 25% to 100%)
SMILES: O=C(Nc1ccc(C(F)(F)F)cc1Cl)c1c[nH]c2ccccc2c1=O [Compound 532, N-[2-chloro-4-(trifluoromethyl)phenyl]-4-oxo-1H-quinoline-3-carboxamide]

EC50: < 10 µM
% Activity: +++ (>100%)
SMILES: COc1ccc2[nH]cc(C(=O)Nc3cc4[nH]ccc4cc3C(C)(C)C)c(=O)c2c1 [Compound 533, 6-methoxy-4-oxo-N-(5-tert-butyl-1H-indol-6-yl)-1H-quinoline-3-carboxamide]

EC50: < 10 µM
% Activity: ++ (between 25% to 100%)
SMILES: CN(C)[C@@H]1CCN(c2ccc(NC(=O)c3c[nH]c4ccccc4c3=O)c(C(F)(F)F)c2)C1 [Compound 534, (R)-N-(4-(3-(dimethylamino)pyrrolidin-1-yl)-2-(trifluoromethyl)phenyl)-4-oxo-1,4-dihydroquinoline-3-carboxamide]

EC50: < 10 µM
% Activity: ++ (between 25% to 100%)
SMILES: CC(C)(C)c1c[nH]c2cc(NC(=O)c3c[nH]c4cccc(O)c4c3=O)ccc12 [Compound 535, 5-hydroxy-4-oxo-N-(3-tert-butyl-1H-indol-6-yl)-1H-quinoline-3-carboxamide]

EC50: < 10 µM
% Activity: ++ (between 25% to 100%)
SMILES: CC1(C)CCN(c2ccc(NC(=O)c3c[nH]c4ccccc4c3=O)c(C(F)(F)F)c2)C1 [Compound 536, N-[4-(3,3-dimethylpyrrolidin-1-yl)-2-(trifluoromethyl)phenyl]-4-oxo-1H-quinoline-3-carboxamide]
